Test results reported in US4492650A, “A54556 Antibiotics and process for production thereof” (Eli Lilly and Company, priority 1982, dated 1985).
≈ marks a conversion by molar mass, not a printed value. Where “and” joins values, the source holds several entries; their conditions need not be identical. Identical values can stand only once. Like-named read-outs stand apart in the source and are kept apart here. Bridge positions count the residues as written; N and C are the ends. Square brackets hold non-standard residues; d marks the D form. Peptide text beside a SMILES is read from it. * marks the point of attachment. ξ: configuration not given here. Octatrienoyl(2E,4E,6E) = C/C=C/C=C/C=C/C(=O)*; ξPro(4ξ-Me) = CC1CNC(C(=O)O)C1; NMeA = CN[CH](C)C(=O)O; X1 = O=C(/C=C/C=C/CO)*

Columns and labels:
Culture A54556 = assay: Sensitivity of Culture A54556 to antibiotics, sensitivity discs on ISP medium No. 2 agar; type: cell-based, Streptomyces hawaiiensis NRRL 15010; also: key: +: sensitive, zones of inhibition; -: resistant, no zones of inhibition
Method: The sensitivity of Culture A54556 to several antibiotics at specific concentrations was determined with sensitivity discs padded onto the surface of plates containing ISP medium No. 2 agar seeded with 2% inoculum of Culture A54556.

[1] = system: Streptococcus pyogenes (Group A) C203; conditions: second test, Table 13
Electrometric titration = type: physicochemical; conditions: 66 percent dimethylformamide in water
Description: Antibiotic A54556 factor A is a tan, amorphous solid. […] As determined by electron impact and field desorption mass spectrometry, A54556 factor A has a molecular weight of 718.

[2] = system: Bacteroides fragilis 1936B; assay: MIC, agar-dilution method; type: cell-based
Description: (§1) Antibiotic A54556 factors A, B, C, D, E, F, G, and H have been tested and found to be active against a number of anaerobic bacteria, as recorded in Table 14, which follows, the MIC values having been determined by the agar-dilution method.

[3] = system: Propionibacterium acnes 79; assay: MIC, agar-dilution method; type: cell-based; conditions: Cutibacterium acnes
Description: as §1

[4] = system: Bacteroides melaninogenicus 2736; assay: MIC, agar-dilution method; type: cell-based
Description: as §1

[5] = system: Bacteroides melaninogenicus 1856/28; assay: MIC, agar-dilution method; type: cell-based; conditions: Prevotella intermedia
Description: as §1

[6] = system: Bacteroides thetaiotaomicron 1438; assay: MIC, agar-dilution method; type: cell-based
Description: as §1

[7] = system: Clostridium difficile 2994; assay: MIC, agar-dilution method; type: cell-based; conditions: Clostridioides difficile
Description: as §1

[8] = system: Clostridium septicum 1128; assay: MIC, agar-dilution method; type: cell-based
Description: as §1

[9] = system: Eubacterium aerofaciens 1235; assay: MIC, agar-dilution method; type: cell-based; conditions: Collinsella aerofaciens
Description: as §1

[10] = system: Peptostreptococcus intermedius 1264; assay: MIC, agar-dilution method; type: cell-based
Description: as §1

Bacteroides fragilis 111 = assay: MIC, agar-dilution method; type: cell-based
Description: as §1

[11] = system: Bacteroides fragilis 1877; assay: MIC, agar-dilution method; type: cell-based
Description: as §1

[12] = system: Fusobacterium necrophorum 6054A; assay: MIC, agar-dilution method; type: cell-based
Description: as §1

[13] = system: Fusobacterium symbiosum 1470; assay: MIC, agar-dilution method; type: cell-based
[14] = system: Streptococcus pneumoniae Park I; conditions: second test, Table 13
[15] = system: Staphylococcus aureus V41; conditions: second test, Table 13, benzylpenicillin resistant
Peptococcus prevoti 1281 = assay: MIC, agar-dilution method; type: cell-based
[16] = system: Staphylococcus epidermidis EPI1; conditions: second test, Table 13
S. pyogenes = assay: In vivo protection against experimental bacterial infection in mice; conditions: Streptococcus pyogenes, sc, two doses subcutaneously
Method: (§2) When two doses of test compound were administered subcutaneously to mice in illustrative infections, the activity is measured as an ED50 value [effective does in mg./kg. to protect fifty percent of the test animals: See Warren Wick et al., J. Bacteriol. 81, 233-235 (1961)]. The ED50 values for these antibiotic A54556 factors are recorded in Table 15, which follows.

anaerobic bacteria = assay: Activity against anaerobic bacteria; type: cell-based; conditions: agar-dilution method
[17] = system: Peptostreptococcus anaerobius 1428; assay: MIC, agar-dilution method; type: cell-based
[18] = system: Bacteroides vulgatis 1211; assay: MIC, agar-dilution method; type: cell-based
[19] = system: Peptococcus asaccharolyticus 1302; assay: MIC, agar-dilution method; type: cell-based; conditions: Peptoniphilus asaccharolyticus
[20] = system: Bacteroides corrodens 1874; assay: MIC, agar-dilution method; type: cell-based; conditions: Eikenella corrodens
[21] = system: Clostridium perfringens 81; assay: microbe, parasite or virus in culture; type: cell-based
[22] = system: experimental bacterial infections; assay: In vivo antimicrobial activity against experimental bacterial infections; conditions: mice, subcutaneously
Method: as §2

[23] = system: Streptococcus sp. (Group D) X66; assay: Disc-plate sensitivity; type: cell-based; conditions: second test, Table 13; for zone of inhibition at 30 µg/disc / zone of inhibition at 300 µg/disc: Streptococcus; for zone of inhibition at 30 µg/disc: read-out: Zone diameter, 30 mcg./disc; for Zone diameter: listed as B
[24] = system: Staphylococcus aureus 3055; conditions: second test, Table 13, benzylpenicillin-susceptible

CN(C)C1C(=O)C(C(N)=O)=C(O)C2(O)C(=O)C3=C(O)c4c(O)cccc4C(C)(O)C3CC12 (stereo not shown) [Tetracycline]
Antibiotic Sensitivity of Culture A54556 (Culture A54556; 30 mcg. disc): +

CC1CC2C(=O)N(C)C(C)C(=O)NC(C)C(=O)N3CCCC3C(=O)OCC(NC(=O)C(Cc3ccccc3)NC(=O)/C=C/C=C/CO)C(=O)N2C1 (stereo not shown) [Factor H] (X1-FS[ξPro(4ξ-Me)][NMeA]AP; ester 2-C; configuration not given here)
Zone diameter ([1]; 30 mcg./disc): 30 mm.
Zone diameter ([1]; 300 mcg./disc): 32 mm.
titratable groups (Electrometric titration): no titratable groups
MIC [2]: > 128 µg/mL
MIC [3]: > 128 µg/mL
MIC [4]: > 128 µg/mL
MIC [5]: > 128 µg/mL
MIC [6]: > 128 µg/mL
MIC [7]: > 128 µg/mL
MIC [8]: > 128 µg/mL
MIC [9]: > 128 µg/mL
MIC [10]: > 128 µg/mL
MIC (Bacteroides fragilis 111): > 128 µg/mL
MIC [11]: > 128 µg/mL
MIC [12]: > 128 µg/mL
MIC [13]: > 128 µg/mL
Zone diameter ([14]; 30 mcg./disc): 25 mm.
Zone diameter ([14]; 300 mcg./disc): 36 mm.
Zone diameter ([15]; 30 mcg./disc): 10 mm.
Zone diameter ([15]; 300 mcg./disc): 14 mm.
MIC (Peptococcus prevoti 1281): > 128 µg/mL
Zone diameter ([16]; 30 mcg./disc): 12 mm.
Zone diameter ([16]; 300 mcg./disc): 24 mm.
ED50 (S. pyogenes): 9.9 mg/kg
activity against a number of anaerobic bacteria (anaerobic bacteria): active
MIC [17]: 128 µg/mL (≈ 181 µM)
MIC [18]: > 128 µg/mL
MIC [19]: > 128 µg/mL
MIC [20]: > 128 µg/mL
MIC [21]: > 128 µg/mL
in vivo antimicrobial activity against experimental bacterial infections [22]: have shown in vivo antimicrobial activity
zone of inhibition at 30 µg/disc [23]: 21 mm
zone of inhibition at 300 µg/disc ([23]; read-out: Zone diameter, 300 mcg./disc): 27 mm
Zone diameter ([24]; 30 mcg./disc): 8 mm.
Zone diameter ([24]; 300 mcg./disc): 11 mm.

[H]/N=C(/N)N[C@H]1[C@H](O)[C@@H](O)[C@H](O[C@@H]2O[C@@H](C)[C@](O)(C=O)[C@H]2O[C@@H]2O[C@@H](CO)[C@H](O)[C@@H](O)[C@@H]2NC)[C@@H](N/C(N)=N\[H])[C@@H]1O [Streptomycin]
Antibiotic Sensitivity of Culture A54556 (Culture A54556; 10 mcg. disc): +

CC[C@H]1OC(=O)[C@H](C)[C@@H](O[C@H]2C[C@@](C)(OC)[C@@H](O)[C@H](C)O2)[C@H](C)[C@@H](O[C@@H]2O[C@H](C)C[C@H](N(C)C)[C@H]2O)[C@](C)(O)C[C@@H](C)C(=O)[C@H](C)[C@@H](O)[C@]1(C)O [Erythromycin]
Antibiotic Sensitivity of Culture A54556 (Culture A54556; 15 mcg. disc): -

C/C=C/C=C/C=C/C(=O)NC(Cc1ccccc1)C(=O)NC1COC(=O)C2CCCN2C(=O)C(C)NC(=O)C(C)N(C)C(=O)C2CCCN2C1=O (stereo not shown) [Factor B] ({Octatrienoyl(2E,4E,6E)}-FSP[NMeA]AP; ester 2-C; configuration not given here)
Zone diameter ([1]; 30 mcg./disc, listed as B): 18 mm. and 26 mm.
Zone diameter ([1]; 300 mcg./disc, listed as B): 24 mm. and 30 mm.
titratable groups (Electrometric titration): no titratable groups
MIC [2]: 16 µg/mL (≈ 22.7 µM)
MIC [3]: > 128 µg/mL
MIC [4]: > 128 µg/mL
MIC [5]: > 128 µg/mL
MIC [6]: 16 µg/mL (≈ 22.7 µM)
MIC [7]: > 128 µg/mL
MIC [8]: 16 µg/mL (≈ 22.7 µM)
MIC [9]: 16 µg/mL (≈ 22.7 µM)
MIC [10]: > 128 µg/mL
MIC (Bacteroides fragilis 111): 32 µg/mL (≈ 45.4 µM)
MIC [11]: > 128 µg/mL
MIC [12]: 16 µg/mL (≈ 22.7 µM)
MIC ([13]; agar-dilution, read-out: MIC): 8 µg/mL (≈ 11.4 µM)
Zone diameter ([14]; 30 mcg./disc): 25 mm.
Zone diameter ([14]; 30 mcg./disc, listed as B): 20 mm.
Zone diameter ([14]; 300 mcg./disc): 32 mm.
Zone diameter ([14]; 300 mcg./disc, listed as B): 35 mm.
Zone diameter ([15]; 30 mcg./disc): 15 mm. and 18 mm.
Zone diameter ([15]; 300 mcg./disc): 19 mm. and 26 mm.
MIC (Peptococcus prevoti 1281; agar-dilution, read-out: MIC): 8 µg/mL (≈ 11.4 µM)
Zone diameter ([16]; 30 mcg./disc, listed as B): 13 mm. and 16 mm.
Zone diameter ([16]; 300 mcg./disc, listed as B): 21 mm. and 27 mm.
ED50 (S. pyogenes): > 70 mg/kg
activity against a number of anaerobic bacteria (anaerobic bacteria): active
MIC ([17]; agar-dilution, read-out: MIC): 8 µg/mL (≈ 11.4 µM)
MIC ([18]; agar-dilution, read-out: MIC): 32 µg/mL (≈ 45.4 µM)
MIC ([19]; agar-dilution, read-out: MIC): 8 µg/mL (≈ 11.4 µM)
MIC [20]: > 128 µg/mL
MIC [21]: 16 µg/mL (≈ 22.7 µM)
in vivo antimicrobial activity against experimental bacterial infections [22]: have shown in vivo antimicrobial activity
Zone diameter ([23]; 30 mcg./disc): 23 mm.
Zone diameter ([23]; 300 mcg./disc): 27 mm.
zone of inhibition at 300 µg/disc ([23]; 300 mcg./disc, read-out: Zone diameter): 30 mm
zone of inhibition at 30 µg/disc [23]: 22 mm
Zone diameter ([24]; 30 mcg./disc): 18 mm. and 20 mm.
Zone diameter ([24]; 300 mcg./disc): 26 mm.

O=C(N[C@H](CO)[C@H](O)c1ccc([N+](=O)[O-])cc1)C(Cl)Cl [Chloromycetin (CAP), Chloromycetin]
Antibiotic Sensitivity of Culture A54556 (Culture A54556; 30 mcg. disc): trace

CO[C@@H]1[C@@H](OC(N)=O)[C@@H](O)[C@H](Oc2ccc3c(O)c(NC(=O)c4ccc(O)c(CC=C(C)C)c4)c(=O)oc3c2C)OC1(C)C [Novobiocin]
Antibiotic Sensitivity of Culture A54556 (Culture A54556; 30 mcg. disc): +

CN[C@H](CC(C)C)C(=O)N[C@H]1C(=O)N[C@@H](CC(N)=O)C(=O)N[C@H]2C(=O)N[C@H]3C(=O)N[C@H](C(=O)N[C@H](C(=O)O)c4cc(O)cc(O)c4-c4cc3ccc4O)[C@H](O)c3ccc(c(Cl)c3)Oc3cc2cc(c3O[C@@H]2O[C@H](CO)[C@@H](O)[C@H](O)[C@H]2O[C@H]2C[C@](C)(N)[C@H](O)[C@H](C)O2)Oc2ccc(cc2Cl)[C@H]1O [Vancomycin]
Antibiotic Sensitivity of Culture A54556 (Culture A54556; 30 mcg. disc): +

CC(=O)OCC1=C(C(=O)O)N2C(=O)[C@@H](NC(=O)Cc3cccs3)[C@H]2SC1 [Cephalothin]
Antibiotic Sensitivity of Culture A54556 (Culture A54556; 30 mcg. disc): -

CO[C@H]1/C=C/O[C@@]2(C)Oc3c(C)c(O)c4c(O)c(c(/C=N/N5CCN(C)CC5)c(O)c4c3C2=O)NC(=O)/C(C)=C\C=C\[C@H](C)[C@H](O)[C@@H](C)[C@@H](O)[C@@H](C)[C@H](OC(C)=O)[C@@H]1C [Rifampin]
Antibiotic Sensitivity of Culture A54556 (Culture A54556; 5 mcg. disc): +
